In patent EP4667483A1, “HUMAN TRANSFERRIN RECEPTOR-BINDING PEPTIDE” (JCR Pharmaceuticals Co., Ltd., priority 2023, dated 2024):
Like-named read-outs stand apart in the source and are kept apart here. Numbered stars: 1 amine (or outer) side, 2 acyl side, 3 side chain; on linkers, the order of the positions; unused ones are H or OH. Bridge positions count the residues as written; N and C are the ends. Square brackets hold non-standard residues; d marks the D form. Side chains are listed from the residue outwards. Peptide text beside a SMILES is read from it. * marks the point of attachment. CH2CO(D-glucamine) = O=C(C*)NC[C@H](O)[C@@H](O)[C@H](O)[C@H](O)CO; NH(1-deoxy-D-glucityl) = OC[C@@H](O)[C@@H](O)[C@H](O)[C@@H](O)CN*; Trp(1-CH2COOH) = N[C@@H](Cc1cn(CC(=O)O)c2ccccc12)C(=O)O; CH2CON(CH2CH2)2NCH2COOH = O=C(O)CN1CCN(C(=O)C*)CC1; NMePhe(4-COOH) = CN[C@@H](Cc1ccc(C(=O)O)cc1)C(=O)O; X1 = O=C([C@H](Cc1cccc(C(=O)[*:3])c1)N[*:1])[*:2]; Nle(6-morpholino) = N[C@@H](CCCCN1CCOCC1)C(=O)O; Phe(3-COOH) = N[C@@H](Cc1cccc(C(=O)O)c1)C(=O)O; Trp(7-aza) = N[C@@H](Cc1c[nH]c2ncccc12)C(=O)O; NH(CH2CH2O)8Me = COCCOCCOCCOCCOCCOCCOCCOCCN*; NMePhe(3-Cl) = CN[C@@H](Cc1cccc(Cl)c1)C(=O)O; Piperazinyl(4-CH2COOH) = O=C(O)CN1CCN(*)CC1; 3Pal(6-NH2) = Nc1ccc(C[C@H](N)C(=O)O)cn1; NMeW = CN[C@@H](Cc1c[nH]c2ccccc12)C(=O)O; NMe3Pal = CN[C@@H](Cc1cccnc1)C(=O)O; NMeY = CN[C@@H](Cc1ccc(O)cc1)C(=O)O; Nva(3-Et) = CCC(CC)[C@H](N)C(=O)O; NMeF = CN[C@@H](Cc1ccccc1)C(=O)O; 4Pal = N[C@@H](Cc1ccncc1)C(=O)O; PEG4 = NCCOCCOCCOCCOCCC(=O)O; Carboxymethyl = O=C(O)C*; CO = O=C([*:1])[*:2]

Molecular target: human transferrin receptor (hTfR) (Homo sapiens, UniProt P02786)
Assay: SPR measurement under pH 7.4 conditions (Biacore T200, CM3 chip, hTfR captured by His Tag antibody)
Assay type: binding
Experimental: Molecular interactions between the synthesized peptides and the transferrin receptor (hTfR) were evaluated by surface plasmon resonance (SPR) using the following method. The specific assay procedure is described below.
An CM3 sensor chip (Cytiva) was inserted into BiacoreT200 (Cytiva), then a priming operation was performed three times by using a running buffer: HBS-P+, pH7.4 (Cytiva), and an equilibrium state was created at a flow rate of […]. Ligand immobilization was performed at a flow rate of 10 µL/min. After mixing 50 µL each of 60 mM EDC solution (Cytiva) and 650 mM NHS solution (Cytiva), the mixture was reacted at a flow rate of 10 µL/min for 420 seconds. 150 µL of […] THE His Tag Antibody, mAb, Mouse (GenScript) was prepared by diluting with 10 mM acetic acid solution (pH 5.0), and reacted at a flow rate of 10 µL/ min for 420 seconds. Then, THE His Tag Antibody, mAb, Mouse (GenScript) was immobilized as a capture molecule on the CM3 sensor chip. After immobilization, capping was performed by reacting with 1.0 M ethanolamine solution (Cytiva) at a flow rate of 10 µL/min for 420 seconds. 300 nM hTfR was captured at a flow rate of 10 µL/min, a peptide solution prepared at 10 mM in DMSO was diluted with running buffer to achieve a final concentration of 10 µM, and peptide solutions at 250 nM, 125 nM, 62.5 nM, 25 nM, and 12.5 nM were prepared. . The peptide samples were reacted at a flow late of 30 µL/min for 120 seconds, followed by dissociation for 600 seconds. The kinetics of the peptide against hTfR was obtained by SPR measurement for the above samples.
The kinetic evaluation model was single-cycle kinetics, and curve fitting was performed using Biacore T200 Evaluation Software Version 3.0 (Cytiva). The binding of the peptide to hTfR was evaluated by performing curve fitting on the obtained sensorgram by the least squares method and obtaining the kon value, the koff value, and the KD value.

[1] = SPR, pH 7.4, Table 2-1-2, read-out: hTfR SPR pH7.4 KD(n M)
[2] = SPR, pH 7.4, Table 2-2, read-out: hTfR SPR pH7.4 KD
[3] = SPR, pH 7.4, peptide with the linker named in the table, read-out: hTfR SPR pH7.4 KD

Chain of human transferrin receptor (hTfR) (P02786 whole entry): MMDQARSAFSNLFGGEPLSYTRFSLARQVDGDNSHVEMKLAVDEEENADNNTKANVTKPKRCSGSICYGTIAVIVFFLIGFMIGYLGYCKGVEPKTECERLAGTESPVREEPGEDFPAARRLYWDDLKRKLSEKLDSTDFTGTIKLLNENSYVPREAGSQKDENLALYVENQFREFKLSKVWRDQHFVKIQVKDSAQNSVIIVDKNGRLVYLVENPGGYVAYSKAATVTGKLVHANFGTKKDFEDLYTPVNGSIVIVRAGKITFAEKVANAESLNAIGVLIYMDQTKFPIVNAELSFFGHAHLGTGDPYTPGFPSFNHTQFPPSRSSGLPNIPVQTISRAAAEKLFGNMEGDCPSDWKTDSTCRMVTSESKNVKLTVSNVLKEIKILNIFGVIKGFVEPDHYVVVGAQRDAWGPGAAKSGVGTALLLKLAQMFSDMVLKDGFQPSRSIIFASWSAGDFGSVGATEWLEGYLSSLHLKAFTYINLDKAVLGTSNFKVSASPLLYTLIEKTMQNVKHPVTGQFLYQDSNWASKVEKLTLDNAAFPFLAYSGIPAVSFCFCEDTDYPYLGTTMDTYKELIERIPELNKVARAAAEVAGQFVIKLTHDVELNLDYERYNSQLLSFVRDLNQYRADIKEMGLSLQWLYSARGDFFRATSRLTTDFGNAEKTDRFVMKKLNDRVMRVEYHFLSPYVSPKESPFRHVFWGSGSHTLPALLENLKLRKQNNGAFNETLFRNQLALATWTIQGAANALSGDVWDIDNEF

CC[C@H](C)[C@@H]1NC(=O)[C@H](Cc2ccc(OCC(=O)N3CCN(CC(=O)O)CC3)cc2)NC(=O)[C@H](Cc2ccc(N)nc2)NC(=O)[C@H](CC(N)=O)NC(=O)[C@H](Cc2c[nH]c3ncccc23)NC(=O)[C@H](C(C)C)NC(=O)[C@H](Cc2cccc(Cl)c2)N(C)C(=O)[C@H](C(C)C)NC(=O)[C@H](C)NC(=O)CSC[C@@H](C(=O)NCCOCCOCCOCCOCCC(N)=O)NC(=O)[C@H](Cc2ccc(O)cc2)N(C)C(=O)[C@H](Cc2ccncc2)NC(=O)[C@H](CCCNC(=N)N)NC(=O)[C@H](CCC(=O)NCCOCCOCCOCCOCCOCCOCCOCCOC)NC(=O)[C@H]([C@@H](C)CC)NC1=O [compound 153]
Kd [1]: 0.0443 µM

CC[C@H](C)[C@@H]1NC(=O)[C@H](Cc2ccc(OCC(=O)NC[C@H](O)[C@@H](O)[C@H](O)[C@H](O)CO)cc2)NC(=O)[C@H](Cc2ccc(N)nc2)NC(=O)[C@H](CC(N)=O)NC(=O)[C@H](Cc2c[nH]c3ncccc23)NC(=O)[C@H](C(C)C)NC(=O)[C@H](Cc2cccc(Cl)c2)N(C)C(=O)[C@H](C(C)C)NC(=O)[C@H](C)NC(=O)CSC[C@@H](C(=O)NCCOCCOCCOCCOCCC(N)=O)NC(=O)[C@H](Cc2ccc(O)cc2)N(C)C(=O)[C@H](Cc2ccncc2)NC(=O)[C@H](CCCCN2CCOCC2)NC(=O)[C@H](CCC(=O)NC[C@H](O)[C@@H](O)[C@H](O)[C@H](O)CO)NC(=O)[C@H]([C@@H](C)CC)NC1=O [compound 13] ({CH2CO}-AV[NMePhe(3-Cl)]V[Trp(7-aza)]N[3Pal(6-NH2)]Y(CH2CO(D-glucamine))IIE(NH(1-deoxy-D-glucityl))[Nle(6-morpholino)][4Pal][NMeY]C[PEG4]-NH2; thioether N-15)
Kd (pH 7.4, single-cycle kinetics, read-out: hTfR SPR pH7.4 KD): 0.0114 µM

CC[C@H](C)[C@@H]1NC(=O)[C@H](Cc2ccc(OC)cc2)NC(=O)[C@H](Cc2ccc(N)nc2)NC(=O)[C@H](CC(N)=O)NC(=O)[C@H](Cc2cnc3ccccn23)NC(=O)[C@H](C(C)C)NC(=O)[C@H](Cc2ccccc2)N(C)C(=O)[C@H](C(C)C)NC(=O)[C@H](C)NC(=O)CSC[C@@H](C(=O)NCC(=O)N[C@H](CCC(=O)O)C(=O)N[C@H](CCC(=O)O)C(=O)N[C@H](CCC(=O)O)C(=O)N[C@H](CO)C(=O)N[C@H](CO)C(=O)N[C@@H](CCCCN=[N+]=[N-])C(N)=O)NC(=O)[C@H](Cc2ccc(C(=O)O)cc2)N(C)C(=O)[C@H](Cc2ccncc2)NC(=O)[C@H](CCCNC(=N)N)NC(=O)[C@H](CCCNC(=N)N)NC(=O)[C@H]([C@@H](C)CC)NC1=O [compound 201]
Kd [2]: 0.212 µM

CC[C@H](C)[C@@H]1NC(=O)[C@H](Cc2ccc(O)cc2)NC(=O)[C@H](Cc2ccc(O)cc2)NC(=O)[C@H](CC(N)=O)NC(=O)[C@H](Cc2c[nH]c3ccccc23)N(C)C(=O)[C@H](C(C)C)NC(=O)[C@H](Cc2ccccc2)N(C)C(=O)[C@H](C(C)C)NC(=O)[C@H](C)NC(=O)CSC[C@@H](C(=O)NCCOCCOCCOCCOCCC(N)=O)NC(=O)[C@H](Cc2ccc(C(=O)O)cc2)N(C)C(=O)[C@H](Cc2cccc(C(=O)NCCOCCOCCOCCOCCC(=O)O)c2)NC(=O)[C@H](CCCNC(=N)N)NC(=O)[C@H](CCCCN)NC(=O)[C@H]([C@@H](C)CC)NC1=O [compound 121] ({CH2CO}-AV[NMeF]V[NMeW]NYYIIKR[X1](PEG4)[NMePhe(4-COOH)]C[PEG4]-NH2; thioether N-15)
Kd [3]: 0.00184 µM

CC[C@H](C)[C@@H]1NC(=O)[C@H](Cc2ccc(OCC(=O)N3CCN(CC(=O)O)CC3)cc2)NC(=O)[C@H](Cc2ccc(N)nc2)NC(=O)[C@H](CC(N)=O)NC(=O)[C@H](Cc2c[nH]c3ncccc23)NC(=O)[C@H](C(C)C)NC(=O)[C@H](Cc2cccc(Cl)c2)N(C)C(=O)[C@H](C(C)C)NC(=O)[C@H](C)NC(=O)CSC[C@@H](C(=O)NCCOCCOCCOCCOCCC(N)=O)NC(=O)[C@H](Cc2ccc(O)cc2)N(C)C(=O)[C@H](Cc2cccc(C(=O)O)c2)NC(=O)[C@H](CCCNC(=N)N)NC(=O)[C@H](CCC(=O)NCCOCCOCCOCCOCCOCCOCCOCCOC)NC(=O)[C@H]([C@@H](C)CC)NC1=O [compound 159] ({CH2CO}-AV[NMePhe(3-Cl)]V[Trp(7-aza)]N[3Pal(6-NH2)]Y(CH2CON(CH2CH2)2NCH2COOH)IIE(NH(CH2CH2O)8Me)R[Phe(3-COOH)][NMeY]C[PEG4]-NH2; thioether N-15)
Kd [1]: 0.00655 µM

CCC(CC)[C@@H]1NC(=O)[C@H](Cc2ccc(OCC(=O)O)cc2)NC(=O)[C@H](Cc2ccc(O)cc2)NC(=O)[C@H](CC(N)=O)NC(=O)[C@H](Cc2cn(CC(=O)O)c3ccccc23)NC(=O)[C@H](C(C)C)NC(=O)[C@H](Cc2cccc(Cl)c2)N(C)C(=O)[C@H](C(C)C)NC(=O)[C@H](C)NC(=O)CSC[C@@H](C(=O)NCCOCCOCCOCCOCCC(N)=O)NC(=O)[C@H](Cc2cccnc2)N(C)C(=O)[C@H](Cc2cccc(C(=O)O)c2)NC(=O)[C@H](CCCNC(=N)N)NC(=O)[C@H](CCC(N)=O)NC(=O)[C@H]([C@@H](C)CC)NC1=O [compound 97] ({CH2CO}-AV[NMePhe(3-Cl)]V[Trp(1-CH2COOH)]NYY(Carboxymethyl)[Nva(3-Et)]IQR[Phe(3-COOH)][NMe3Pal]C[PEG4]-NH2; thioether N-15)
Kd [3]: 0.0226 µM

CCC(CC)[C@@H]1NC(=O)[C@H](Cc2ccc(OCC(=O)O)cc2)NC(=O)[C@H](Cc2ccc(N)nc2)NC(=O)[C@H](CC(N)=O)NC(=O)[C@H](Cc2c[nH]c3ccccc23)NC(=O)[C@H](C(C)C)NC(=O)[C@H](Cc2cccc(Cl)c2)N(C)C(=O)[C@H](C(C)C)NC(=O)[C@H](C)NC(=O)CSC[C@@H](C(=O)NCCOCCOCCOCCOCCC(N)=O)NC(=O)[C@H](Cc2ccc(C(=O)O)cc2)N(C)C(=O)[C@H](Cc2cccc(C(=O)O)c2)NC(=O)[C@H](CCCNC(=N)N)NC(=O)[C@H](CCC(=O)NCCOCCOCCOCCOCCOCCOCCOCCOC)NC(=O)[C@H]([C@@H](C)CC)NC1=O [compound 85] ({CH2CO}-AV[NMePhe(3-Cl)]VWN[3Pal(6-NH2)]Y(Carboxymethyl)[Nva(3-Et)]IE(NH(CH2CH2O)8Me)R[Phe(3-COOH)][NMePhe(4-COOH)]C[PEG4]-NH2; thioether N-15)
Kd (SPR, pH 7.4, read-out: hTfR SPR pH7.4 KD): 0.234 µM

CC[C@H](C)[C@@H]1NC(=O)[C@H](Cc2ccc(OCC(=O)N3CCN(CC(=O)O)CC3)cc2)NC(=O)[C@H](Cc2ccc(N)nc2)NC(=O)[C@H](CC(N)=O)NC(=O)[C@H](Cc2c[nH]c3ncccc23)NC(=O)[C@H](C(C)C)NC(=O)[C@H](Cc2cccc(Cl)c2)N(C)C(=O)[C@H](C(C)C)NC(=O)[C@H](C)NC(=O)CSC[C@@H](C(=O)NCCOCCOCCOCCOCCC(N)=O)NC(=O)[C@H](Cc2ccc(O)cc2)N(C)C(=O)[C@H](Cc2ccncc2)NC(=O)[C@H](CCCCN2CCOCC2)NC(=O)[C@H](CCC(=O)NCCOCCOCCOCCOCCOCCOCCOCCOC)NC(=O)[C@H]([C@@H](C)CC)NC1=O [compound 154] ({CH2CO}-AV[NMePhe(3-Cl)]V[Trp(7-aza)]N[3Pal(6-NH2)]Y(CH2CON(CH2CH2)2NCH2COOH)IIE(NH(CH2CH2O)8Me)[Nle(6-morpholino)][4Pal][NMeY]C[PEG4]-NH2; thioether N-15)
Kd [1]: 0.0326 µM

CC[C@H](C)[C@@H]1NC(=O)[C@H](Cc2ccc(OC)cc2)NC(=O)[C@H](Cc2ccc(N)nc2)NC(=O)[C@H](CC(N)=O)NC(=O)[C@H](Cc2cnc3ccccn23)NC(=O)[C@H](C(C)C)NC(=O)[C@H](Cc2ccccc2)N(C)C(=O)[C@H](C(C)C)NC(=O)[C@H](C)NC(=O)CSC[C@@H](C(=O)NCC(=O)N[C@H](CCC(=O)O)C(=O)N[C@H](CCC(=O)O)C(=O)N[C@H](CCC(=O)O)C(=O)N[C@H](CO)C(=O)N[C@H](CO)C(=O)N[C@@H](CCCCN=[N+]=[N-])C(N)=O)NC(=O)[C@H](Cc2ccc(O)cc2)N(C)C(=O)[C@H](Cc2ccncc2)NC(=O)[C@H](CCCNC(=N)N)NC(=O)[C@H](CCCNC(=N)N)NC(=O)[C@H]([C@@H](C)CC)NC1=O [compound 202]
Kd [2]: 0.515 µM

CC[C@H](C)[C@@H]1NC(=O)[C@H](Cc2ccc(OCC(=O)N3CCN(CC(=O)O)CC3)cc2)NC(=O)[C@H](Cc2ccc(N)nc2)NC(=O)[C@H](CC(N)=O)NC(=O)[C@H](Cc2cn(CC(=O)O)c3ccccc23)NC(=O)[C@H](C(C)C)NC(=O)[C@H](Cc2cccc(Cl)c2)N(C)C(=O)[C@H](C(C)C)NC(=O)[C@H](C)NC(=O)CSC[C@@H](C(=O)NCCOCCOCCOCCOCCC(N)=O)NC(=O)[C@H](Cc2ccc(O)cc2)N(C)C(=O)[C@H](Cc2ccncc2)NC(=O)[C@H](CCCNC(=N)N)NC(=O)[C@H](CCCCNC(=O)N2CCN(CC(=O)O)CC2)NC(=O)[C@H]([C@@H](C)CC)NC1=O [compound 158] ({CH2CO}-AV[NMePhe(3-Cl)]V[Trp(1-CH2COOH)]N[3Pal(6-NH2)]Y(CH2CON(CH2CH2)2NCH2COOH)IIK([CO-Piperazinyl(4-CH2COOH)])R[4Pal][NMeY]C[PEG4]-NH2; thioether N-15)
Kd [1]: 0.0202 µM
